Laboratory results taken from paper PMC7161708 (Acta Pharmaceutica Sinica. B, 2019).

Experiments:
[1] = test system: phosphorylation of p70S6K; test: Inhibition of p70S6K phosphorylation, α-screen assay in SH-SY5Y cell; assay type: cell-based; conditions: mean ± SD (n ≥ 3)
[2] = in vitro; conditions: PAMPA
[3] = from PAMPA–BBB Pe

| Papp at 10 h, 100 μg/mL [2] [×10⁻⁶ cm/s] | SMILES | Inhibition ratio of p70S6K phosphorylation at 20 μmol/L (%) [1] [%] | Prediction of BBB penetration [3] |
| --- | --- | --- | --- |
|  | O=C(Nc1ncc([N+](=O)[O-])s1)c1ccccc1O [Compound 2, tizoxanide, reference compound] | 43.09±2.98 |  |
|  | CC(=O)Oc1ccccc1C(=O)Nc1nccs1 [Compound 4, 2-Acetyloxy-N-(thiazol-2-yl)benzamide] | 9.98±5.16 |  |
|  | CC(=O)Oc1ccccc1C(=O)Nc1ncc(C#N)s1 [Compound 5, 2-Acetyloxy-N-(5-cyanothiazol-2-yl)benzamide] | 70.85±3.56 |  |
|  | COC(=O)c1cnc(NC(=O)c2ccccc2OC(C)=O)s1 [Compound 6, Methyl 2-(2-acetoxybenzamido)thiazole-5-carboxylate] | 32.72±7.87 |  |
|  | CC(=O)Oc1ccccc1C(=O)Nc1ncc(C(=O)OCc2ccccc2)s1 [Compound 7, Benzyl 2-(2-acetoxybenzamido)thiazole-5-carboxylate] | 18.88±5.27 |  |
|  | CSc1cnc(NC(=O)c2ccccc2OC(C)=O)s1 [Compound 8, 2-Acetyloxy-N-(5-(methylthio)thiazol-2-yl)benzamide] | 44.74±9.98 |  |
|  | CC(=O)Oc1ccccc1C(=O)Nc1ncc(S(C)(=O)=O)s1 [Compound 9, 2-Acetyloxy-N-(5-(methylsulfonyl)thiazol-2-yl)benzamide] | 10.67±10.51 |  |
|  | CC(=O)Oc1ccccc1C(=O)Nc1ncc(C(=O)O)s1 [Compound 10, 2-(2-Acetoxybenzamido)thiazole-5-carboxylic acid] | −4.51±19.40 |  |
|  | CC(=O)Oc1ccccc1C(=O)Nc1ncc(N2CCCCC2)s1 [Compound 11, 2-Acetyloxy-N-(5-(piperidin-1-yl)thiazol-2-yl)benzamide] | 56.27±4.61 |  |
|  | CC(=O)Oc1ccccc1C(=O)Nc1ncc(-n2cccc2)s1 [Compound 13, 2-Acetyloxy-N-(5-(1H-pyrrol-1-yl)thiazol-2-yl)benzamide] | 69.85±0.53 |  |
|  | CC(=O)Oc1ccccc1C(=O)Nc1ncc(N2CCNCC2)s1 [Compound 14, 2-Acetyloxy-N-(5-(piperazin-1-yl)thiazol-2-yl)benzamide] | 28.21±6.44 |  |
|  | O=C(Nc1ncc(N2CCOCC2)s1)c1ccc(F)cc1O [Compound 15, 4-Fluoro-2-hydroxy-N-(5-morpholinothiazol-2-yl)benzamide] | 42.25±0.19 |  |
|  | O=C(Nc1ncc(N2CCOCC2)s1)c1ccc(Cl)cc1O [Compound 16, 4-Chloro-2-hydroxy-N-(5-morpholinothiazol-2-yl)benzamide] | 21.02±4.56 |  |
|  | O=C(Nc1ncc(N2CCOCC2)s1)c1ccc(Br)cc1O [Compound 17, 4-Bromo-2-hydroxy-N-(5-morpholinothiazol-2-yl)benzamide] | 15.41±5.32 |  |
|  | O=C(Nc1ncc(N2CCOCC2)s1)c1ccc(C(F)(F)F)cc1O [Compound 18, 2-Hydroxy-N-(5-morpholinothiazol-2-yl)-4-(trifluoromethyl)benzamide] | 8.76±5.93 |  |
|  | O=C(Nc1ncc(N2CCOCC2)s1)c1ccccc1O [Compound 19, 2-Hydroxy-N-(5-morpholinothiazol-2-yl)benzamide] | 53.79±3.85 |  |
| 0.45 ± 0.03 | O=C(Nc1ncc(N2CCOCC2)s1)c1cccc(O)c1 [Compound 20, 3-Hydroxy-N-(5-morpholinothiazol-2-yl)benzamide] | 83.86±1.54 | CNS− (Compounds with Pe < 1.13 × 10^−6 cm/s show low BBB permeation (CNS−)) |
| 0.09 ± 0.01 | O=C(Nc1ncc(N2CCOCC2)s1)c1ccc(O)cc1 [Compound 21, 4-Hydroxy-N-(5-morpholinothiazol-2-yl)benzamide] | 79.20±1.87 | CNS− (Compounds with Pe < 1.13 × 10^−6 cm/s show low BBB permeation (CNS−)) |
| 4.92 ± 0.31 | CC(=O)Oc1ccc(C(=O)Nc2ncc(N3CCOCC3)s2)cc1 [Compound 23, 4-Acetyloxy-N-(5-morpholinothiazol-2-yl)benzamide] | 84.96±0.98 | CNS+ (Compounds with permeabilities Pe > 3.08 × 10^−6 cm/s could cross the BBB by passive diffusion (CNS+)) |
| 12.6 ± 1.22 | O=C(Nc1ncc(N2CCOCC2)s1)c1ccccc1 [Compound 24, N-(5-Morpholinothiazol-2-yl)benzamide] | 77.51±1.48 | CNS+ (Compounds with permeabilities Pe > 3.08 × 10^−6 cm/s could cross the BBB by passive diffusion (CNS+)) |
|  | O=C(Nc1ncc(N2CCOCC2)s1)c1ccccc1C(F)(F)F [Compound 25, N-(5-Morpholinothiazol-2-yl)-2-(trifluoromethyl)benzamide] | 22.05±1.85 |  |
|  | O=C(Nc1ncc(N2CCOCC2)s1)c1ccccc1F [Compound 26, 2-Fluoro-N-(5-morpholinothiazol-2-yl)benzamide] | 65.98±1.74 |  |

| Papp at 10 h, 100 μg/mL [2] [×10⁻⁶ cm/s] | SMILES | Inhibition ratio of p70S6K phosphorylation at 20 μmol/L (%) [1] [%] | Prediction of BBB penetration [3] |
| --- | --- | --- | --- |
|  | O=C(Nc1ncc(N2CCOCC2)s1)c1ccccc1[N+](=O)[O-] [Compound 27, N-(5-Morpholinothiazol-2-yl)-2-nitrobenzamide] | 53.24±5.72 |  |
|  | Cc1ccccc1C(=O)Nc1ncc(N2CCOCC2)s1 [Compound 28, 2-Methyl-N-(5-morpholinothiazol-2-yl)benzamide] | 55.38±1.66 |  |
|  | COc1ccccc1C(=O)Nc1ncc(N2CCOCC2)s1 [Compound 29, 2-Methoxy-N-(5-morpholinothiazol-2-yl)benzamide] | 26.90±6.23 |  |
| 5.76 ± 0.55 | O=C(Nc1ncc(N2CCOCC2)s1)c1cccc2ccccc12 [Compound 30, N-(5-Morpholinothiazol-2-yl)-1-naphthamide] | 78.75±2.50 | CNS+ (Compounds with permeabilities Pe > 3.08 × 10^−6 cm/s could cross the BBB by passive diffusion (CNS+)) |
| 3.42 ± 0.07 | O=C(Nc1ncc(N2CCOCC2)s1)c1ccc2ccccc2c1 [Compound 31, N-(5-Morpholinothiazol-2-yl)-2-naphthamide] | 80.96±1.60 | CNS+ (Compounds with permeabilities Pe > 3.08 × 10^−6 cm/s could cross the BBB by passive diffusion (CNS+)) |
| 6.16 ± 0.5 | O=C(Nc1ncc(N2CCOCC2)s1)c1ccco1 [Compound 32, N-(5-Morpholinothiazol-2-yl)furan-2-carboxamide] | 81.09±4.27 | CNS+ (Compounds with permeabilities Pe > 3.08 × 10^−6 cm/s could cross the BBB by passive diffusion (CNS+)) |
| 10.4 ± 1.25 | O=C(Nc1ncc(N2CCOCC2)s1)c1cccs1 [Compound 33, N-(5-Morpholinothiazol-2-yl)thiophene-2-carboxamide] | 79.80±5.03 | CNS+ (Compounds with permeabilities Pe > 3.08 × 10^−6 cm/s could cross the BBB by passive diffusion (CNS+)) |
|  | O=C(Nc1ncc(N2CCOCC2)s1)C1CC1 [Compound 39, N-(5-Morpholinothiazol-2-yl)cyclopropanecarboxamide] | 63.76±1.31 |  |
|  | O=C(Nc1ncc(N2CCOCC2)s1)C1CCC1 [Compound 40, N-(5-Morpholinothiazol-2-yl)cyclobutanecarboxamide] | 66.21±3.74 |  |
|  | O=C(Nc1ncc(N2CCOCC2)s1)C1CCCC1 [Compound 41, N-(5-Morpholinothiazol-2-yl)cyclopentanecarboxamide] | 63.37±4.65 |  |
|  | O=C(Nc1ncc(N2CCOCC2)s1)C1CCCCC1 [Compound 42, N-(5-Morpholinothiazol-2-yl)cyclohexanecarboxamide] | 61.15±1.44 |  |
|  | O=C(Nc1ncc(N2CCOCC2)s1)C1CCCCCC1 [Compound 43, N-(5-Morpholinothiazol-2-yl)cycloheptanecarboxamide] | 51.10±1.59 |  |
|  | CC(=O)Nc1ncc(N2CCOCC2)s1 [Compound 45, N-(5-Morpholinothiazol-2-yl)acetamide] | 43.86±4.45 |  |
|  | CCC(=O)Nc1ncc(N2CCOCC2)s1 [Compound 46, N-(5-Morpholinothiazol-2-yl)propionamide] | 44.98±8.58 |  |
|  | CCCC(=O)Nc1ncc(N2CCOCC2)s1 [Compound 47, N-(5-Morpholinothiazol-2-yl)butyramide] | 61.71±2.51 |  |
|  | CCCCCC(=O)Nc1ncc(N2CCOCC2)s1 [Compound 48, N-(5-Morpholinothiazol-2-yl)hexanamide] | 61.32±5.39 |  |
|  | CC(C)CC(=O)Nc1ncc(N2CCOCC2)s1 [Compound 49, 3-Methyl-N-(5-morpholinothiazol-2-yl)butanamide] | 40.38±3.37 |  |
|  | O=C(CCC(F)(F)F)Nc1ncc(N2CCOCC2)s1 [Compound 50, 4,4,4-Trifluoro-N-(5-morpholinothiazol-2-yl)butanamide] | 61.35±5.44 |  |
|  | O=C(Cc1ccccc1)Nc1ncc(N2CCOCC2)s1 [Compound 51, N-(5-Morpholinothiazol-2-yl)-2-phenylacetamide] | 47.82±3.90 |  |
|  | O=C1CCCCC1C(=O)Nc1ncc(N2CCOCC2)s1 (stereo not drawn) [Compound 53, N-(5-Morpholinothiazol-2-yl)-2-oxocyclohexanecarboxamide] | 44.94±4.00 |  |
|  | CC(=O)CC(=O)Nc1ncc(N2CCOCC2)s1 [Compound 54, N-(5-Morpholinothiazol-2-yl)-3-oxobutanamide] | 66.46±3.73 |  |
|  | COC[C@H]1OC(=O)c2coc3c2[C@@]1(C)C1=C(C3=O)[C@@H]2CCC(=O)[C@@]2(C)C[C@H]1OC(C)=O [WORT, wortmannin, reference compound] | 90.68±1.46 |  |
